From ChEMBL document CHEMBL1275550, “In vitro activity of doripenem, a carbapenem for the treatment of challenging infections caused by gram-negative bacteria, against recent clinical isolates from the United States” (2008)
In brackets after ≈: the same amount, converted by molar mass.

Tests used:
[1] = tested on: Staphylococcus aureus; experiment: Antimicrobial activity against methicillin-resistant Staphylococcus aureus by broth microdilution method; type: functional
[2] = tested on: Citrobacter; experiment: Antimicrobial activity against Citrobacter with derepressed AmpC beta-lactamsae by broth microdilution method; type: functional
[3] = tested on: Serratia marcescens; experiment: Antimicrobial activity against Ceftazidime susceptible Serratia marcescens assessed as intermediate isolate by broth microdilution method; type: functional
[4] = tested on: Proteus mirabilis; experiment: Antimicrobial activity against Non-ESBL Proteus mirabilis assessed as resistant isolate by broth microdilution method; type: functional
[5] = tested on: Proteus mirabilis; experiment: Antimicrobial activity against ESBL producing Proteus mirabilis assessed as susceptible isolate by broth microdilution method; type: functional
[6] = tested on: Citrobacter; experiment: Antimicrobial activity against Citrobacter with nonderepressed AmpC beta-lactamsae assessed as intermediate isolate by broth microdilution method; type: functional
[7] = tested on: Citrobacter; experiment: Antimicrobial activity against Citrobacter with nonderepressed AmpC beta-lactamsae assessed as susceptible isolate by broth microdilution method; type: functional
[8] = tested on: Acinetobacter; experiment: Antimicrobial activity against imipenem non-susceptible Acinetobacter assessed as intermediate isolate by broth microdilution method; type: functional
[9] = tested on: Serratia marcescens; experiment: Antimicrobial activity against Ceftazidime susceptible Serratia marcescens by broth microdilution method; type: functional
[10] = tested on: Acinetobacter; experiment: Antimicrobial activity against imipenem susceptible Acinetobacter assessed as susceptible isolate by broth microdilution method; type: functional
[11] = tested on: Pseudomonas aeruginosa; experiment: Antimicrobial activity against imipenem non-susceptible Pseudomonas aeruginosa assessed as intermediate isolate by broth microdilution method; type: functional
[12] = tested on: Klebsiella pneumoniae; experiment: Antimicrobial activity against ESBL producing Klebsiella pneumoniae assessed as intermediate isolate by broth microdilution method; type: functional
[13] = tested on: Proteus mirabilis; experiment: Antimicrobial activity against Non-ESBL Proteus mirabilis assessed as intermediate isolate by broth microdilution method; type: functional
[14] = tested on: Acinetobacter; experiment: Antimicrobial activity against Acinetobacter by broth microdilution method; type: functional
[15] = tested on: Pseudomonas aeruginosa; experiment: Antimicrobial activity against imipenem susceptible Pseudomonas aeruginosa assessed as susceptible isolate by broth microdilution method; type: functional
[16] = tested on: Serratia marcescens; experiment: Antimicrobial activity against Serratia marcescens assessed as resistant isolate by broth microdilution method; type: functional
[17] = tested on: Staphylococcus aureus; experiment: Antimicrobial activity against methicillin-susceptible Staphylococcus aureus assessed as susceptible isolate by broth microdilution method; type: functional
[18] = tested on: Pseudomonas aeruginosa; experiment: Antimicrobial activity against Ceftazidime susceptible Pseudomonas aeruginosa assessed as susceptible isolate by broth microdilution method; type: functional
[19] = tested on: Klebsiella pneumoniae; experiment: Antimicrobial activity against Klebsiella pneumoniae by broth microdilution method; type: functional
[20] = tested on: Serratia marcescens; experiment: Antimicrobial activity against Ceftazidime susceptible Serratia marcescens assessed as susceptible isolate by broth microdilution method; type: functional
[21] = tested on: Streptococcus pneumoniae; experiment: Antimicrobial activity against penicillin-resistant Streptococcus pneumoniae by broth microdilution method; type: functional
[22] = tested on: Acinetobacter; experiment: Antimicrobial activity against Acinetobacter assessed as intermediate isolate by broth microdilution method; type: functional
[23] = tested on: Enterobacter cloacae; experiment: Antimicrobial activity against Enterobacter cloacae with nonderepressed AmpC beta-lactamsae assessed as intermediate isolate by broth microdilution method; type: functional
[24] = tested on: Serratia marcescens; experiment: Antimicrobial activity against Ceftazidime non-susceptible Serratia marcescens by broth microdilution method; type: functional
[25] = tested on: Enterobacter cloacae; experiment: Antimicrobial activity against Enterobacter cloacae with derepressed AmpC beta-lactamsae by broth microdilution method; type: functional
[26] = tested on: Pseudomonas aeruginosa; experiment: Antimicrobial activity against Pseudomonas aeruginosa isolated from ICU patient assessed as intermediate isolate by broth microdilution method
[27] = tested on: Enterobacter cloacae; experiment: Antimicrobial activity against Enterobacter cloacae with derepressed AmpC beta-lactamsae assessed as intermediate isolate by broth microdilution method; type: functional
[28] = tested on: Pseudomonas aeruginosa; experiment: Antimicrobial activity against Pseudomonas aeruginosa isolated from ICU patient assessed as resistant isolate by broth microdilution method
[29] = tested on: Klebsiella pneumoniae; experiment: Antimicrobial activity against ESBL producing Klebsiella pneumoniae assessed as susceptible isolate by broth microdilution method; type: functional
[30] = tested on: Acinetobacter; experiment: Antimicrobial activity against imipenem non-susceptible Acinetobacter assessed as susceptible isolate by broth microdilution method; type: functional
[31] = tested on: Escherichia coli; experiment: Antimicrobial activity against ESBL producing Escherichia coli assessed as susceptible isolate by broth microdilution method; type: functional
[32] = tested on: Serratia marcescens; experiment: Antimicrobial activity against Ceftazidime non-susceptible Serratia marcescens assessed as susceptible isolate by broth microdilution method; type: functional
[33] = tested on: Klebsiella pneumoniae; experiment: Antimicrobial activity against Klebsiella pneumoniae assessed as intermediate isolate by broth microdilution method; type: functional
[34] = tested on: Enterobacter cloacae; experiment: Antimicrobial activity against Enterobacter cloacae assessed as intermediate isolate by broth microdilution method; type: functional
[35] = tested on: Pseudomonas aeruginosa; experiment: Antimicrobial activity against Ceftazidime non-susceptible Pseudomonas aeruginosa assessed as resistant isolate by broth microdilution method; type: functional
[36] = tested on: Pseudomonas aeruginosa; experiment: Antimicrobial activity against Ceftazidime non-susceptible Pseudomonas aeruginosa assessed as intermediate isolate by broth microdilution method; type: functional
[37] = tested on: Pseudomonas aeruginosa; experiment: Antimicrobial activity against imipenem susceptible Pseudomonas aeruginosa by broth microdilution method; type: functional
[38] = tested on: Enterobacter cloacae; experiment: Antimicrobial activity against Enterobacter cloacae with derepressed AmpC beta-lactamsae assessed as susceptible isolate by broth microdilution method; type: functional
[39] = tested on: Enterobacteriaceae; experiment: Antimicrobial activity against ceftazidime-susceptible Enterobacteriaceae by broth microdilution method; type: functional
[40] = tested on: Staphylococcus; experiment: Antimicrobial activity against methicillin-susceptible coagulase-negative Staphylococcus by broth microdilution method; type: functional
[41] = tested on: Citrobacter; experiment: Antimicrobial activity against Citrobacter with derepressed AmpC beta-lactamsae assessed as intermediate isolate by broth microdilution method; type: functional
[42] = tested on: Escherichia coli; experiment: Antimicrobial activity against ESBL producing Escherichia coli by broth microdilution method; type: functional
[43] = tested on: Escherichia coli; experiment: Antimicrobial activity against Escherichia coli by broth microdilution method; type: functional
[44] = tested on: Pseudomonas aeruginosa; experiment: Antimicrobial activity against Ceftazidime non-susceptible Pseudomonas aeruginosa assessed as susceptible isolate by broth microdilution method; type: functional
[45] = tested on: Acinetobacter; experiment: Antimicrobial activity against imipenem susceptible Acinetobacter assessed as intermediate isolate by broth microdilution method; type: functional
[46] = tested on: Serratia marcescens; experiment: Antimicrobial activity against Serratia marcescens assessed as intermediate isolate by broth microdilution method; type: functional
[47] = tested on: Streptococcus pneumoniae; experiment: Antimicrobial activity against penicillin-resistant Streptococcus pneumoniae assessed as resistant isolate by broth microdilution method; type: functional
[48] = tested on: Enterobacteriaceae; experiment: Antimicrobial activity against ceftazidime-susceptible Enterobacteriaceae assessed as resistant isolate by broth microdilution method; type: functional
[49] = tested on: Streptococcus pneumoniae; experiment: Antimicrobial activity against penicillin-intermediate Streptococcus pneumoniae assessed as intermediate isolate by broth microdilution method; type: functional
[50] = tested on: Enterobacteriaceae; experiment: Antimicrobial activity against Ceftazidime non-susceptible Enterobacteriaceae assessed as intermediate isolate by broth microdilution method; type: functional
[51] = tested on: Enterobacter cloacae; experiment: Antimicrobial activity against Enterobacter cloacae assessed as susceptible isolate by broth microdilution method; type: functional
[52] = tested on: Klebsiella pneumoniae; experiment: Antimicrobial activity against ESBL producing Klebsiella pneumoniae assessed as resistant isolate by broth microdilution method; type: functional
[53] = tested on: Pseudomonas aeruginosa; experiment: Antimicrobial activity against Ceftazidime non-susceptible Pseudomonas aeruginosa by broth microdilution method; type: functional
[54] = tested on: Pseudomonas aeruginosa; experiment: Antimicrobial activity against imipenem non-susceptible Pseudomonas aeruginosa assessed as resistant isolate by broth microdilution method; type: functional
[55] = Streptococcus pneumoniae, read-out: MIC50
[56] = Staphylococcus, read-out: MIC50

Compound: C[C@@H](O)[C@H]1C(=O)N2C(C(=O)O)=C(SCCNC=N)C[C@H]12 [IMIPENEM ANHYDROUS]
- MIC50 [1]: 0.25 µg/mL (≈ 0.835 µM)
- MIC90 [1]: 8 µg/mL (≈ 26.7 µM)
- MIC50 [2]: 1 µg/mL (≈ 3.34 µM)
- MIC90 [2]: 2 µg/mL (≈ 6.68 µM)
- Activity [3]: 0.3%
- Activity [4]: 0.2%
- Activity [5]: 100%
- Activity [6]: 0%
- Activity [7]: 99.8%
- Activity [8]: 3.9%
- MIC50 [9]: 2 µg/mL (≈ 6.68 µM)
- MIC90 [9]: 4 µg/mL (≈ 13.4 µM)
- Activity [10]: 100%
- Activity [11]: 32.4%
- Activity [12]: 2.3%
- Activity [13]: 2.5%
- MIC50 [14]: 1 µg/mL (≈ 3.34 µM)
- MIC90 [14]: > 32 µg/mL
- Activity [15]: 100%
- Activity [16]: 0.8%
- Activity [17]: 100%
- Activity [18]: 79.3%
- MIC50 [19]: 0.5 µg/mL (≈ 1.67 µM)
- MIC90 [19]: 1 µg/mL (≈ 3.34 µM)
- Activity [20]: 98.9%
- MIC50 [21, 55]: 0.5 µg/mL (≈ 1.67 µM)
- MIC90 ([21]; Streptococcus pneumoniae, read-out: MIC90): 1 µg/mL (≈ 3.34 µM)
- Activity [22]: 0.7%
- Activity [23]: 0.5%
- MIC50 [24]: 2 µg/mL (≈ 6.68 µM)
- MIC90 [24]: 4 µg/mL (≈ 13.4 µM)
- MIC50 [25]: 1 µg/mL (≈ 3.34 µM)
- MIC90 [25]: 2 µg/mL (≈ 6.68 µM)
- Activity [26]: 5.8%
- Activity [27]: 0%
- Activity [28]: 26.6%
- Activity [29]: 95.5%
- Activity [30]: 0%
- Activity [31]: 100%
- Activity [32]: 100%
- Activity [33]: 0.2%
- Activity [34]: 0.4%
- Activity [35]: 36.4%
- Activity [36]: 8.2%
- MIC50 [37]: 2 µg/mL (≈ 6.68 µM)
- MIC90 [37]: 4 µg/mL (≈ 13.4 µM)
- Activity [38]: 100%
- MIC50 [39]: 0.5 µg/mL (≈ 1.67 µM)
- MIC90 [39]: 2 µg/mL (≈ 6.68 µM)
- MIC50 [40, 56]: ≤ 0.015 µg/mL
- MIC90 ([40]; Staphylococcus, read-out: MIC90): 0.03 µg/mL (≈ 0.1 µM)
- Activity [41]: 0%
- MIC50 [42]: 0.5 µg/mL (≈ 1.67 µM)
- MIC90 [42]: 1 µg/mL (≈ 3.34 µM)
- MIC50 [43]: 0.25 µg/mL (≈ 0.835 µM)
- MIC90 [43]: 0.5 µg/mL (≈ 1.67 µM)
- Activity [44]: 55.5%
- Activity [45]: 0%
- Activity [46]: 0.3%
- Activity [47]: 2.1%
- Activity [48]: 0.1%
- Activity [49]: 84.4%
- Activity [50]: 1.7%
- Activity [51]: 99.6%

Compound: C[C@@H](O)[C@H]1C(=O)N2C(C(=O)O)=C(S[C@@H]3CN[C@H](C(=O)N(C)C)C3)[C@H](C)[C@H]12 [MEROPENEM]
- MIC50 [2]: 0.12 µg/mL (≈ 0.313 µM)
- MIC90 [2]: 0.25 µg/mL (≈ 0.652 µM)
- Activity [3]: 0%
- Activity [5]: 100%
- Activity [6]: 0%
- Activity [7]: 100%
- Activity [8]: 0%
- MIC50 [9]: 0.12 µg/mL (≈ 0.313 µM)
- MIC90 [9]: 0.25 µg/mL (≈ 0.652 µM)
- Activity [10]: 97.9%
- Activity [11]: 16.9%
- Activity [12]: 0%
- Activity [13]: 0%
- MIC50 [14]: 1 µg/mL (≈ 2.61 µM)
- MIC90 [14]: > 32 µg/mL
- Activity [15]: 98.5%
- Activity [16]: 0.8%
- Activity [17]: 100%
- Activity [18]: 88.8%
- Activity [52]: 4.5%
- MIC50 [19]: 0.06 µg/mL (≈ 0.156 µM)
- MIC90 [19]: 0.06 µg/mL (≈ 0.156 µM)
- Activity [20]: 99.2%
- MIC50 [53]: 4 µg/mL (≈ 10.4 µM)
- MIC90 [53]: 32 µg/mL (≈ 83.4 µM)
- MIC50 [21]: 1 µg/mL (≈ 2.61 µM)
- MIC50 [21, 55]: 1 µg/mL (≈ 2.61 µM)
- Activity [22]: 1.4%
- Activity [23]: 0.5%
- MIC50 [24]: 0.25 µg/mL (≈ 0.652 µM)
- MIC90 [24]: 0.25 µg/mL (≈ 0.652 µM)
- MIC50 [25]: 0.25 µg/mL (≈ 0.652 µM)
- MIC90 [25]: 0.5 µg/mL (≈ 1.3 µM)
- Activity [26]: 7.9%
- Activity [27]: 0%
- Activity [28]: 18%
- Activity [29]: 95.5%
- Activity [30]: 0%
- Activity [31]: 100%
- Activity [32]: 100%
- Activity [33]: 0%
- Activity [34]: 0.4%
- Activity [35]: 35.5%
- Activity [36]: 3.6%
- MIC50 [37]: 0.5 µg/mL (≈ 1.3 µM)
- MIC90 [37]: 2 µg/mL (≈ 5.22 µM)
- Activity [38]: 100%
- MIC50 [39]: 0.06 µg/mL (≈ 0.156 µM)
- MIC90 [39]: 0.12 µg/mL (≈ 0.313 µM)
- MIC50 [40]: 0.12 µg/mL (≈ 0.313 µM)
- MIC50 [40, 56]: 0.06 µg/mL (≈ 0.156 µM)
- Activity [41]: 0%
- MIC50 [42]: 0.06 µg/mL (≈ 0.156 µM)
- MIC90 [42]: 0.06 µg/mL (≈ 0.156 µM)
- MIC50 [43]: 0.03 µg/mL (≈ 0.0782 µM)
- MIC90 [43]: 0.06 µg/mL (≈ 0.156 µM)
- Activity [44]: 60.9%
- Activity [54]: 40.6%
- Activity [45]: 1.7%
- Activity [46]: 0%
- Activity [47]: 2.3%
- Activity [48]: 0.1%
- Activity [49]: 83.9%
- Activity [50]: 0.7%
- Activity [51]: 99.6%
